Experimental data published in patent US12655173B2, “Hybrid amide derivatives of amphotericin B” (priority 2020, dated 2026).
Converted amounts (≈) assume the structure as drawn. Read-outs that look alike come from different tables or passages of the source.

Experiments:
Epidermophyton floccosum = assay: MIC against yeasts (Table 3A); format: cell-based; conditions: 2 isolates
Candida krusei = assay: MIC against yeasts; format: cell-based
Cryptococcus neoformans = assay: MIC against yeasts; format: cell-based
Licht. Corymbifera = assay: MIC against moulds; format: cell-based; conditions: 6 isolates, AmB (AmBisome)
Malassezia furfur = assay: MIC against yeasts (Table 3A); format: cell-based; conditions: 3 isolates
Syncephalastrum sp. = assay: MIC against moulds; format: cell-based; conditions: 6 isolates, AmB (AmBisome)
C. albicans SN250 = assay: In vivo efficacy in murine candidiasis model (C. albicans SN250), female CD-1 mice, kidney fungal burden
Talaromyces marneffei = assay: MIC against moulds; format: cell-based; conditions: 6 isolates, AmB (AmBisome)
[1] = Mouse single IV injection: mortality
Coccidioides immitis = assay: microbe, parasite or virus in culture; format: cell-based; conditions: for MIC Coccidioides immitis: 6 isolates, AmB (AmBisome)
[2] = test system: erythrocytes (whole human blood); assay: MHC hemolysis assay; format: cell-based
Experimental: MHC (FIG. 1B and FIG. 10): The protocol for the hemolysis assay was adapted from the report of Paquet and coworkers (Chem. Eur. J. 2008, 14, 2465-2481). Whole human blood (sodium heparin) was purchased from Bioreclamation LLC (Westbury, NY) and stored at 4° C. and used within two days of receipt. To a 2.0 mL appendorf tube, 1 mL of whole human blood was added and centrifuged at 10,000 g for 2 minutes. The supernatant was removed and the erythrocyte pellet was washed with 1 mL of sterile saline and centrifuged at 10,000 g for 2 minutes. The saline wash was repeated for a total of three washes. The erythrocyte pellet was suspended in 1 mL of RBC buffer (10 mM NaH2PO4, 150 mM NaCl, 1 mM MgCl2, pH 7.4) to form the erythrocyte stock suspension.
Compounds were prepared as >15 mM stock solutions in DMSO and serially diluted to the following concentrations with DMSO: 7689, 5126, 2563, 2050, 1538, 1025, 769, 513, 384, 256, 205, 154, 103, 77, 51, 26 μM. To a 0.2 mL PCR tube, 24 μL of RBC buffer and 1 μL of compound stock solution were added, which gave final concentrations of 500, 300, 200, 100, 80, 60, 40, 30, 20, 15, 10, 8, 6, 4, 3, 2, 1 μM. Positive and negative controls were prepared by adding 1 μL of DMSO to MilliQ water or RBC buffer, respectively to 0.2 mL PCR tube. To each PCR tube, 0.63 μL. of the erythrocyte stock suspension was added and mixed by inversion. The samples were incubated at 37° C. for 2 hours. The samples were mixed by inversion and centrifuged at 10,000 g for 2 minutes. 15 μL of the supernatant from each sample was added to a 384-well place. Absorbances were read at 540 nm using a Biotek H1 Synergy Hybrid Reader (Winooski, VT), Experiments were performed in triplicate and the reported MHC represents an average of three experiments.

Licht. Ramosa = assay: MIC against moulds; format: cell-based; conditions: 6 isolates; AmB (AmBisome)
yeast = assay: MICavg / Average MIC against yeasts; format: cell-based; conditions: for MIC: 46 isolates, Table 3
Scedosporium apiospermum = assay: MIC against yeasts (Table 3A); format: cell-based; conditions: 2 isolates
KIM1, LCN2, TIMP1, SPP1 = conditions: mouse, in vivo
[3] = Blood plasma stability, mouse; format: in vitro ADME
Trichophyton rubrum = assay: MIC against yeasts (Table 3A); format: cell-based; conditions: 3 isolates
Mucor velutinosus = assay: MIC against moulds; format: cell-based; conditions: 6 isolates, AmB (AmBisome)
[4] = test system: A. funigatus (CEA10 strain); assay: Efficacy study against pulmonary aspergillosis in neutropenic mice: survival; format: in vivo; conditions: 15 mg/kg QD IP for 7 days, monitored until day 14
Source text: Efficacy study (FIG. 22): Healthy mice were divided as 10 mice/group. […] Animals were infected with A. funigatus (CEA10 strain) (intranasal) on day 0. […] Survivability of the animals were monitored during the course of the study.

Rhodotorula sp. = assay: MIC against yeasts; format: cell-based; conditions: 6 isolates, Table 3
Candida albicans = assay: MIC against yeasts; format: cell-based; conditions: 15 isolates, Table 3A
P450 2C19 = P450 2C19 (Homo sapiens, UniProt P33261); assay: P450 inhibition 2C19; format: in vitro ADME
P450 2C19, sequence (P33261 whole entry): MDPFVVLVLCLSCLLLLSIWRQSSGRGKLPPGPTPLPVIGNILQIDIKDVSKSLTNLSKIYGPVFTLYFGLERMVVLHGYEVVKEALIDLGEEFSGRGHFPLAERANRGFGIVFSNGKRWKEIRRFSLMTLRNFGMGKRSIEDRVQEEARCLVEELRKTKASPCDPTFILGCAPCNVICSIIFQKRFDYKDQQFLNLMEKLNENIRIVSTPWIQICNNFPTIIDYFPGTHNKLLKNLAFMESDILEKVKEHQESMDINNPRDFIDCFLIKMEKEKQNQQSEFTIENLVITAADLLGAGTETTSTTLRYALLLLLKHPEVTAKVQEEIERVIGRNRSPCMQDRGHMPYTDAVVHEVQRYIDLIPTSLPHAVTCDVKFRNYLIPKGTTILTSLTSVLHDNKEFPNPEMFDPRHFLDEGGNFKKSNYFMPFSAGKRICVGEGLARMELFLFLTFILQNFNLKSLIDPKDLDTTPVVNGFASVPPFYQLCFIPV

Solubility in D5W = conditions: in D5W
P450 2D6 = P450 2D6 (Homo sapiens, UniProt P10635); assay: P450 inhibition 2D6; format: in vitro ADME
P450 2D6, sequence (P10635 whole entry): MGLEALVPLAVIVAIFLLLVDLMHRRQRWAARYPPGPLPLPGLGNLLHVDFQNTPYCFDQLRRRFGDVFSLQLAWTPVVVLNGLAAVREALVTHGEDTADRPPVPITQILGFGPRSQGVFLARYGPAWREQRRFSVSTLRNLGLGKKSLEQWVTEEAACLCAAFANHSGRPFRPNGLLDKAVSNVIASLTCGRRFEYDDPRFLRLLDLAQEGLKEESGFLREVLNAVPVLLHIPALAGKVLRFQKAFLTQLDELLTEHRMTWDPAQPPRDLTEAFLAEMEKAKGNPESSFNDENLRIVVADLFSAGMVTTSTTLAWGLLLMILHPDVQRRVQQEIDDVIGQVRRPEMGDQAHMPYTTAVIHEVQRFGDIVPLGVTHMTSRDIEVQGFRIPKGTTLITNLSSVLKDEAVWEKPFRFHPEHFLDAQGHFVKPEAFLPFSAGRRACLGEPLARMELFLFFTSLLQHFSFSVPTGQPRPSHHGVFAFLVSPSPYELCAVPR

P450 3A4 = P450 3A4 (Homo sapiens, UniProt P08684); assay: P450 inhibition 3A4; format: in vitro ADME
P450 3A4, sequence (P08684 whole entry): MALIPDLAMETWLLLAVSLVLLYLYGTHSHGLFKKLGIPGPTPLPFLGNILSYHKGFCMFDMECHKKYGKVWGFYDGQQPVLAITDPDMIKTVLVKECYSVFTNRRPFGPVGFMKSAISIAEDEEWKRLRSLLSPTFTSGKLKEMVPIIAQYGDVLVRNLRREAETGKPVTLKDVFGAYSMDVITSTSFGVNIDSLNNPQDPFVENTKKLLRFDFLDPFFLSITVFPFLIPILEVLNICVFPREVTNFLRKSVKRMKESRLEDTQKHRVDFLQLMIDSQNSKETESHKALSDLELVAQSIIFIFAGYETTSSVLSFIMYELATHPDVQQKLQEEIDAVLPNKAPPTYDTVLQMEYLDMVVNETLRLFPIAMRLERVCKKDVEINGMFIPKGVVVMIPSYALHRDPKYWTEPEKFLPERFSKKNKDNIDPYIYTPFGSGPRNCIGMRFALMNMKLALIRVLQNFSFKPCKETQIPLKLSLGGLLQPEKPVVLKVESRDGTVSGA

P450 2C9 = P450 2C9 (Homo sapiens, UniProt P11712); assay: P450 inhibition 2C9; format: in vitro ADME
P450 2C9, sequence (P11712 whole entry): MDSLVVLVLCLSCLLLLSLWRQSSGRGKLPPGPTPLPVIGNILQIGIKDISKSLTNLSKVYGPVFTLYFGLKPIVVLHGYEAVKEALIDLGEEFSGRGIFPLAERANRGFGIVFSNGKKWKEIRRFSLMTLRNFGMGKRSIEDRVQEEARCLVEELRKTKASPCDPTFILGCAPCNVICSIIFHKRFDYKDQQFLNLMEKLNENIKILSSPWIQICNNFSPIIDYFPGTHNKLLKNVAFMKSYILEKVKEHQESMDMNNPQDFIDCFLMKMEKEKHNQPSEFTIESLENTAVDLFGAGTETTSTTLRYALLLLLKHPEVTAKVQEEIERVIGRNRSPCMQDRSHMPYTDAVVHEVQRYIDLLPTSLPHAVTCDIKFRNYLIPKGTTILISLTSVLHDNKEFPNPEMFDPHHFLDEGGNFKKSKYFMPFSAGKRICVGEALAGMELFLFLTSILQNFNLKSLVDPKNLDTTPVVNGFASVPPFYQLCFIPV

P450 1A2 = P450 1A2 (Homo sapiens, UniProt P05177); assay: P450 inhibition 1A2; format: in vitro ADME
P450 1A2, sequence (P05177 whole entry): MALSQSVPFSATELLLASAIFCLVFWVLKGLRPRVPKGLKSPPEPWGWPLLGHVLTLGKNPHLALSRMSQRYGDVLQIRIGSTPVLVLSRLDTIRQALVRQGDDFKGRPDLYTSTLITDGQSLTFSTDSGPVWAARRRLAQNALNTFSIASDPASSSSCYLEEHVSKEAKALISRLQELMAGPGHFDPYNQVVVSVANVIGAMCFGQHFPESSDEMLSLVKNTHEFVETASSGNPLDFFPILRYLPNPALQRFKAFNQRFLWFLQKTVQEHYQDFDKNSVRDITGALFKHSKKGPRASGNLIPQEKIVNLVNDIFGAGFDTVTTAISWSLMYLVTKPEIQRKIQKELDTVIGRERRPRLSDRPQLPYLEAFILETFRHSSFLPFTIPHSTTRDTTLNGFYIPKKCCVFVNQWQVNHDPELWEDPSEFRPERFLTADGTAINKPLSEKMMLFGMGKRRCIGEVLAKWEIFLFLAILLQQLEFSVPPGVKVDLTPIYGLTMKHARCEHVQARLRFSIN

[5] = 2 isolates, Table 3, read-out: MIC Candida krusei

| SMILES | Mouse candidiasis model 5 mpk; Log (CFU/mL) (C. albicans SN250) | Mouse single IV injection: mortality (40 mpk) [1] | MHC [2] | MIC (Licht. Ramosa) | MICavg yeast (5 strains) (yeast) | MIC (yeast) | MICavg yeast (46 strains) (yeast) | MIC (Candida krusei; [5]) | MIC (Cryptococcus neoformans; 10 isolates, Table 3) | MIC (Licht. Corymbifera) | P450 Inhibition (%) 2C19 (P450 2C19) | Solubility (Solubility in D5W) | MIC (Syncephalastrum sp.) | P450 Inhibition (%) 2D6 (P450 2D6) | P450 Inhibition (%) 3A4 (P450 3A4) | MIC (Talaromyces marneffei) | MIC Coccidioides immitis (Coccidioides immitis) | P450 Inhibition (%) 2C9 (P450 2C9) | P450 Inhibition (%) 1A2 (P450 1A2) | Blood Plasma Stability (T1/2, min) Mouse [3] | other results |
| --- | --- | --- | --- | --- | --- | --- | --- | --- | --- | --- | --- | --- | --- | --- | --- | --- | --- | --- | --- | --- | --- |
| C[C@@H]1[C@H](O)[C@@H](C)/C=C/C=C/C=C/C=C/C=C/C=C/C=C/[C@H](OC2O[C@H](C)[C@@H](O)[C@H](N)[C@@H]2O)C[C@@H]2O[C@](O)(C[C@@H](O)C[C@@H](O)[C@H](O)CC[C@@H](O)C[C@@H](O)CC(=O)O[C@H]1C)C[C@H](O)[C@H]2C(=O)O (stereo partly shown) [AmB, Amphotericin B] | 5.2 Log (CFU/mL) | 0/3 | 8.4 | 0.15 µM (≈ 0.139 µg/mL) | 0.23 | 0.9 µM (≈ 0.832 µg/mL) | 0.9 |  |  |  |  |  |  |  |  |  |  |  |  |  | MIC (Epidermophyton floccosum): 0.38 µM (≈ 0.351 µg/mL); MIC (Candida krusei; Pichia kudriavzevii, read-out: MIC Candida krasei): 2.5 µM (≈ 2.31 µg/mL); MIC (Candida krusei; Pichia kudriavzevii, 2 isolates, Table 3, read-out: MIC Candida krusei): 1 µM (≈ 0.924 µg/mL); MIC (Cryptococcus neoformans; Cryptococcus neoformans, 3 isolates, Table 3A): 1.17 µM (≈ 1.08 µg/mL); MIC (Cryptococcus neoformans; Cryptococcus neoformans, 10 isolates, Table 3): 0.55 µM (≈ 0.508 µg/mL); MIC (Licht. Corymbifera; Lichtheimia corymbifera): 0.23 µM (≈ 0.213 µg/mL); MIC (Malassezia furfur): > 16 µM; MIC (Syncephalastrum sp.; Syncephalastrum): 0.06 µM (≈ 0.0554 µg/mL); MIC (Talaromyces marneffei; Talaromyces marneffei): 0.09 µM (≈ 0.0832 µg/mL); MIC (Coccidioides immitis; Coccidioides immitis, read-out: MIC Coccidioides immitis): 0.125 µM (≈ 0.116 µg/mL); MIC (Scedosporium apiospermum): > 16 µM; Renal toxicity biomarkers KIM1, LCN2, TIMP1, SPP1 (KIM1, LCN2, TIMP1, SPP1): elevated; half-life ([3]; mouse, blood plasma, read-out: Blood Plasma Stability (T1/2, min) Mouse): > 289 min; MIC (Trichophyton rubrum): 1.1 µM (≈ 1.02 µg/mL); MIC (Mucor velutinosus; Mucor velutinosus): 0.08 µM (≈ 0.0739 µg/mL); Survival [4]: 80%; MIC (Rhodotorula sp.; Rhodotorula): 1 µM (≈ 0.924 µg/mL); MIC (Candida albicans): 0.61 µM (≈ 0.564 µg/mL) |
| CC1C=CC=CC=CC=CC=CC=CC=CC(OC2OC(C)C(O)C(N)C2O)CC2OC(O)(CC(O)CC(O)C(O)CCC(O)CC(O)CC(=O)OC(C)C(C)C1O)CC(O)C2C(=O)NC(CO)(CO)CO (stereo not shown) [Compound 2] |  |  | >60 | 0.75 µM (≈ 0.77 µg/mL) | 0.41 | 2.3 µM (≈ 2.36 µg/mL) | 2.3 | 3 µM (≈ 3.08 µg/mL) | 2 µM (≈ 2.05 µg/mL) | 1 µM (≈ 1.03 µg/mL) | 1.1% | 366 µM (≈ 376 µg/mL) | 1 µM (≈ 1.03 µg/mL) | 0.0% | 14.5% | 0.21 µM (≈ 0.216 µg/mL) | 0.27 µM (≈ 0.277 µg/mL) | 0.0% | 0.0% | 265.1 min | MIC (Mucor velutinosus): 1.17 µM (≈ 1.2 µg/mL); MIC (Rhodotorula sp.): 3.7 µM (≈ 3.8 µg/mL) |
| CC1C=CC=CC=CC=CC=CC=CC=CC(OC2OC(C)C(O)C(N)C2O)CC2OC(O)(CC(O)CC(O)C(O)CCC(O)CC(O)CC(=O)OC(C)C(C)C1O)CC(O)C2C(=O)NC(CO)CO (stereo not shown) [Compound 1] | 4.8 Log (CFU/mL) | 0/4 | >100 | 0.58 µM (≈ 0.578 µg/mL) | 0.53 | 2.1 µM (≈ 2.09 µg/mL) | 2.1 | 2 µM (≈ 1.99 µg/mL) | 2 µM (≈ 1.99 µg/mL) | 0.5 µM (≈ 0.499 µg/mL) | 0.0% | >7220 µM | 0.5 µM (≈ 0.499 µg/mL) | 0.0% | 14.5% | 0.12 µM (≈ 0.12 µg/mL) | 0.27 µM (≈ 0.269 µg/mL) | 26.9% | 8.7% | >289; >289 min | MIC (Mucor velutinosus): 0.67 µM (≈ 0.668 µg/mL); MIC (Rhodotorula sp.): 2.8 µM (≈ 2.79 µg/mL) |
